# Source: patent publication US8609610B2, “Inhibitors of the trypsin-like site of the proteasome and methods of use thereof” (Trustees of Dartmouth College, priority 2011, dated 2013)
# pIC50: −log10 of the molar value.
# Key:
# [1] = tested on: Caspase-3/7 activity in NCI-H929 and MM1.R cell lines; assay: APO-ONE caspase-3/7 assay; format: cell-based; conditions: combination of NC-001 and NC-002
# Experimental: RPMI-8226 and NCI-H929 cells were cultured in RPMI-1640 supplemented with 10% fetal bovine serum, penicillin, streptomycin, and plasmocin in 5% CO2 humidified incubator. HEK-293T cells were cultured in DMEM containing 10% fetal calf serum, 10 units/mL penicillin, and 10 μg/mL streptomycin in a 7% CO2 humidified incubator. Viability of multiple myeloma cells was measured with ALAMAR BLUE mitochondrial dye conversion assay. Viability of peripheral blood mononuclear cells (PBMNCs) was measured using CELL TITER-GLO luminescent cell viability assay (Promega), which is based on quantification of ATP present in the cells. Caspase-3/7 activity was measured using APO-ONE 3/7 homogeneous assay (Promega).
# [2] = biological target: T1, trypsin-like site of 26S proteasomes (Oryctolagus cuniculus, UniProt G1SWK8); assay: Inhibition of purified 26S proteasomes, substrate Ac-RLR-amc; format: biochemical, rabbit; conditions: 26S proteasomes from rabbit muscles
# T1 construct: IC50 for sites in 26S proteasomes: Tr-L; other: purified 26S proteasomes; other: 26S proteasomes from rabbit muscles
# T1 sequence (G1SWK8 1-271): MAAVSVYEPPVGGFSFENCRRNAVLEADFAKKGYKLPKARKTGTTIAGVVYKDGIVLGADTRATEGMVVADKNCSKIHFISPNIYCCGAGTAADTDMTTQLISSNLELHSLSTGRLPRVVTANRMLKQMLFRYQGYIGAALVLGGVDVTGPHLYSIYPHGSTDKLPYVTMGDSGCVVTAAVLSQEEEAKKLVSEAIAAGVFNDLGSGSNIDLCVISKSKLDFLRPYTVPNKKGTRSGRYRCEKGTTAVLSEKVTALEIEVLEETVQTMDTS
# [3] = tested on: trypsin-like site of 26S proteasomes; assay: as above; format: biochemical, rabbit
# [4] = biological target: T2, trypsin-like sites (β2) of proteasome in MM cells (Homo sapiens, UniProt Q99436); assay: PROTEASOMEGLO assay of proteasome inhibition in MM cells; format: cell-based; conditions: NCI-H929 cells treated overnight
# T2 construct: endogenous in cells; host or cells: NCI-H929, RPMI-8226 and other MM cell lines
# T2 sequence (Q99436 44-277): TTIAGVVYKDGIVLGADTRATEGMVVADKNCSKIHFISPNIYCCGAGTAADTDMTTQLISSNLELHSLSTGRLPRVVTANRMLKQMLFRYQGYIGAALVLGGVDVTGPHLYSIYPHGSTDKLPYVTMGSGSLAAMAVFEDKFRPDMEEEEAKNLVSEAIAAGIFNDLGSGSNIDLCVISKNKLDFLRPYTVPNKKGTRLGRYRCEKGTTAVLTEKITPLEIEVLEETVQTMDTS
# β2 and β2i sites = assay: MV-151 label-competition in extracts of RPMI-8226 MM cells; format: biochemical; conditions: extracts of RPMI-8226 cells, MV-151 probe
# Description: Multiple myeloma cells express constitutive proteasomes and immunoproteasomes, and substrates used for the measurement of activity were cleaved by both. To determine whether there were any differences in inhibition of constitutive proteasomes or immunoproteasomes by NC-002, NC-012, and NC-022, the fluorescent activity-based probe MV-151 (Verdoes, et al. (2006) Chem. Biol. 13:1217-1226) was used in a label-competition experiment. Extracts of RPMI-8226 MM cells (which express more immunoproteasomes than NCI-H929 cells) were treated first with the NC inhibitors and then with the MV-151 probe. This was followed by fractionation on SDS-PAGE to separate proteasome subunits and imaging to reveal those subunits labeled by the probe (i.e., unmodified by the inhibitors).
# [5] = biological target: T3, chymotrypsin-like site of 26S proteasomes (Oryctolagus cuniculus, UniProt G1T4Q9); assay: Inhibition of purified 26S proteasomes, substrate Suc-LLVY-amc; format: biochemical, rabbit; conditions: >>30 no inhibition at 30 μM, >30 inhibition between 10 and 50% at 30 μM, read-out: IC50 for sites in 26S proteasomes: Chym-L
# T3 sequence (G1T4Q9 1-263): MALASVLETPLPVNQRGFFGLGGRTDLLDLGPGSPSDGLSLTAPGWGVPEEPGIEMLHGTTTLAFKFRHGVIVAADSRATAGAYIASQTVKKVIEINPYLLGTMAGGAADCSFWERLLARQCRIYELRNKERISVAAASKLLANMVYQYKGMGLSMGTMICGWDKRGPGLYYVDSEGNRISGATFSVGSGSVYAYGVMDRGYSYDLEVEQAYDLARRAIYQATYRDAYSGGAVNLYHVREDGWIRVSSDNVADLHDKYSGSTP
# Cathepsin B, H, L, S = assay: Cathepsin activity with pan-cathepsin substrate Z-FR-amc; format: cell-based
# Experimental: (§1) Cathepsin B, H, L, S activity was measured with pan-cathepsin substrate Z-FR-amc (Kirschke & Wiederanders (1994) Methods Enzymol. 244:500-11) in extracts of cytosol-less cells at pH 6.0 (Screen, et al. (2010) supra). Cathepsin D activity was measured in cytosol-less extracts using SENSOLYTE 520 Cathepsin D Fluorometric Assay Kit (AnaSpec). Combined cathepsin D and E activity was measured using the same kit, in which cathepsin D substrate provided with the kit was replaced with 7-Methoxycoumarin-[…](Dnp)-X′-NH2 (SEQ ID NO:10; where “X′” stand for D-Arg) internally quenched fluorogenic substrate of cathepsin D and E. In this case, pH 3.0 assay buffer used for cell extraction. All activity observed using both procedures was inhibited by more than 98% by specific inhibitor of aspartic proteases pepstatin A.
# [6] = biological target: caspase-like site of 26S proteasomes (Oryctolagus cuniculus, UniProt A0A5F9DQW2); assay: Inhibition of purified 26S proteasomes, substrate Ac-nLPnLD-amc; format: biochemical, rabbit; conditions: >>30 no inhibition at 30 μM, >30 inhibition between 10 and 50% at 30 μM, read-out: IC50 for sites in 26S proteasomes: Casp-L
# caspase-like site of 26S proteasomes, sequence (A0A5F9DQW2 1-212): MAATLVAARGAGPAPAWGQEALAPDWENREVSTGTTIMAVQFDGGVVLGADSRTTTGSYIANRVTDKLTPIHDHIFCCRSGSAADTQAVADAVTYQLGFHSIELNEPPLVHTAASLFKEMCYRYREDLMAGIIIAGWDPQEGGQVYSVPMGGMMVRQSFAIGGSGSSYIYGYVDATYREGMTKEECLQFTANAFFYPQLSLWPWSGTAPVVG
# Experimental: 26S proteasomes were purified from rabbit muscle using known methods (Screen, et al. (2010) supra). […] NOVEX Bis-Tris gels (12%, Invitrogen) with MOPS running buffer were used for electrophoretic separation of catalytic subunits modified by active-site probes. Inhibition of active sites inside cells was assayed using luminescent PROTEASOMEGLO assay (Promega; Moravec, et al. (2009) Anal. Biochem. 387:294-302) according to known methods (Britton, et al. (2009) supra).
# cathepsin D = biological target: T4, cathepsin D (Homo sapiens, UniProt P07339); assay: Cathepsin D activity assay (SENSOLYTE 520); format: cell-based
# T4 construct: endogenous in cells
# T4 sequence (P07339 65-412): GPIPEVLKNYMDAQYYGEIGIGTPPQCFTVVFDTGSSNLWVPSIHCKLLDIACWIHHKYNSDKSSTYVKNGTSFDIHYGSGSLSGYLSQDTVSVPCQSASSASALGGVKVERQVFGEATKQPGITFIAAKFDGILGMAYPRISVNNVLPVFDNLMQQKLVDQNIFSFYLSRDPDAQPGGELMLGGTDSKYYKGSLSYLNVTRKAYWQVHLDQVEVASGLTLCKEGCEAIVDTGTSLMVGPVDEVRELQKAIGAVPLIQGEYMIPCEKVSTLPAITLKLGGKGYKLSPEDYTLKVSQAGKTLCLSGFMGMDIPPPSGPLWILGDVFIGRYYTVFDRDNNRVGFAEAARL
# Experimental: as §1
# [7] = tested on: proteasome catalytic subunits in NCI-H929 cells; assay: Isolation and identification of polypeptides modified by az-NC-002; format: cell-based; conditions: BioP ligation, streptavidin isolation, mass-spectrometry
# Experimental: Cells were treated with the activity-based site probe overnight and lysed with 50 mM Tris-HCl, 10% glycerol, 5 mM MgCl2, 0.5 mM EDTA, 0.5% CHAPS, 1 mM ATP. […] After on-beads trypsin digestion, samples were analyzed by LC-MS/MS (Florea, et al. (2010) Chem. Biol. 17:795-801). IRDYE 800 CW-conjugated streptavidin was purchased from Rockland, hsc71 antibodies from Abcam (Cat #19136), and β2 antibodies from Abgent (Cat #AP2914b).
# To further confirm that NC-002, NC-012 and NC-022 were specific for the trypsin-like sites and that the biological activity was not due to off-target effects, az-NC-002 was synthesized as an NC-002-derived, activity-based probe. […] One major az-NC-002-specific streptavidin-reactive band was detected. […] A weaker band of slightly lower mobility, matching the mobility of β2i band, was also detected. […] A number of endogenously biotinylated proteins in the 70-100 kDa region were also detected and can serve as a loading control.
# To further confirm that the probe covalently modified β2 and β2i subunits, proteasome was denatured after BioP modification, biotinylated polypeptides were isolated on streptavidin beads, and bound polypeptides were identified by mass-spectrometry after on-beads trypsin digestion. […] No peptides derived from other catalytic subunits were detected.
# β2 proteasome subunit = biological target: T5, β2 proteasome subunit (Homo sapiens, UniProt P49720+Q99436); assay: Competition assay in HEK-293T cell lysate with MV151; format: biochemical; conditions: HEK-293T lysate, 5 μM
# T5 construct: Whole cell lysates of HEK-293T or EL-4 cells were made by sonication; endogenous in cells; host or cells: HEK-293T
# [8] = biological target: β2 (trypsin-like site) of proteasome in HEK-293T cells (Homo sapiens, UniProt P49720+Q99436); assay: Competition assay in living HEK-293T cells with activity-based probe; format: cell-based
# Experimental: Proteasome inhibition in MM cells was measured with luminogenic substrates using PROTEASOMEGLO assay (Promega). […] An aliquot of culture was pelleted and medium was removed and replaced with PBS. The resulting cell suspension was mixed with luminogenic substrates in the manufacturer-provided lysis/assay buffer. After 3 minutes mixing on an orbital shaker, the plate was incubated in the dark for additional 17 minutes, followed by the measurements of the luminescence, performed in triplicate for each substrate/data point. Data were analyzed as for purified proteasomes. […] Cells (1×10^6 per well of a 6-well plate) were incubated with the inhibitors for 4 hours at 37° C. and this was followed by a 2 hour incubation with 5 μM BODIPY-TMR-epoxomicin. Subsequently, the medium was removed and the cells were washed with PBS and harvested. […] The supernatant was collected and the protein concentration was determined by the Bradford assay, and used to normalize gel loading. The samples were analysed by SDS-PAGE and fluorescent densitometry as described for competition experiment in cell lysates. IC50 values were calculated from three independent experiments using […] PRISM software.
# Human embryonic kidney cells (some 1×10^6) were cultured in 6-well plates in DMEM containing 10% fetal calf serum, 10 units/mL penicillin and 10 μg/mL streptomycin in a 7% CO2 humidified incubator at 37° C. overnight. Part of the medium was taken and to this was added the appropriate inhibitor in DMSO (1 μL of a 1,000× stock solution), after which the medium was added to the cells. The cells were incubated with the inhibitors for 4 hours at 37° C. and this was followed by addition of MV151 (1 μL of a 5 mM stock solution in DMSO) and incubation for 2 hours at 37° C. Next, the medium was removed and the cells were washed with PBS and harvested. […] The supernatant was collected and the protein concentration was determined by the Bradford assay. All samples were normalized to the same protein concentration with lysis buffer.
# β5 proteasome subunit = biological target: T6, β5 proteasome subunit (Homo sapiens, UniProt P20618+P28074); assay: Competition assay in HEK-293T cell lysate with MV151; format: biochemical; conditions: HEK-293T lysate, 5 μM
# T6 construct: Whole cell lysates of HEK-293T or EL-4 cells were made by sonication; endogenous in cells; host or cells: HEK-293T
# Experimental: Whole cell lysates of HEK-293T or EL-4 cells were made by sonication in 3 volumes of lysis buffer containing 50 mM Tris pH 7.5, 1 mM DTT, 5 mM MgCl2, 250 mM sucrose, 2 mM ATP, 0.025% digitonin. Protein concentration was determined by the Bradford assay. Cell lysates (13.5 μg total protein for HEK lysates and 9 μg total protein for EL-4 lysates) were exposed to the inhibitors for 1 hour at 37° C. prior to incubation with MV151 (0.5 μM) or BODIPY-TMR-epoxomicin (0.5 μM) for an additional 1 hour at 37° C. Reaction mixtures were boiled with Laemmli's buffer containing (3-mercaptoethanol for 5 minutes before being resolved by 12.5% SDS-PAGE. In-gel detection of residual proteasome activity was performed in the wet gel slabs directly on the TYPHOON Variable Mode Imager (Amersham Biosciences) using the Cy3/Tamra settings (λex 532 nm, λem 560 nm) to detect MV151, BODIPY-TMR-epoxomicin and Cy2/Fam settings (λex 488 nm, λem 520 nm) to detect compounds 39 and 59.
# The inhibition potential of the inhibitors for each of the catalytically active subunits was assessed in competition assays employing extracts of human embryonic kidney cells (HEK-293T) and mouse lymphoma cells (EL-4) in combination with the fluorescent broad spectrum proteasome probe MV151 (Verdoes, et al. (2006) Chem. Biol. 13:1217-1226). Competitive inhibition of a proteasome active site is reflected by the disappearance of the corresponding band on a gel.
compound,measurement,setting,value
"CC(=O)N[C@@H](CC(C)C)C(=O)N[C@@H](CC(C)C)C(=O)N[C@@H](CCCNC(=N)N)C(=O)[C@@]1(C)CO1 [NC-002, Ac-Leu-Leu-Arg-ek]",caspase activity (apoptosis),[1],did not cause any significant increase in caspase activity
same,proteasome inhibitory potential on purified 26S proteasomes,[2],potent and specific inhibitors of the trypsin-like sites
same,IC50 (Chym-L)/IC50 (Tr-L),[3]; rabbit 26S proteasomes,>30
same,inhibition of trypsin-like activity in live cells,[4],sub-micromolar concentrations
same,inhibition of constitutive (β2) versus immunoproteasome (β2i) trypsin-like sites,β2 and β2i sites,equipotent inhibitors of the trypsin-like sites of constitutive and immunoproteasomes
same,pIC50,[5],< 4.52
same,inhibition of lysosomal cysteine proteases,"Cathepsin B, H, L, S",did not inhibit
same,pIC50,[6],< 4.52
"CC(C)C[C@H](NC(=O)CN=[N+]=[N-])C(=O)N[C@@H](CC(C)C)C(=O)N[C@@H](CCCNC(=N)N)C(=O)[C@@]1(C)CO1 [az-NC-002, Az-Gly-Leu-Leu-Arg-ek]",inhibition of cathepsin D,cathepsin D,no significant inhibition
same,subunits modified by the probe,[7],trypsin-like site-specific activity-based probe
BODIPY-triazole-Phe-Leu-Leu-Phe (4-CH2NH2)-VS [Compound 39],inhibition of β2 in cell lysate,β2 proteasome subunit,all β2 and β5 proteasomal activity was inhibited
same,inhibition of trypsin- and chymotrypsin-like activities,[3],equipotently inhibited trypsin- and chymotrypsin-like activities
same,specificity after attachment of BODIPY-FL dye,[3],complete loss of specificity
same,inhibition of β2 and β5 in living cells,[8]; 5 μM,seemed not to be competed away at all
same,inhibition of proteasome activity in living cells,[8]; 50 μM,not all proteasome activity was silenced
same,inhibition of β5 in cell lysate,β5 proteasome subunit,all β2 and β5 proteasomal activity was inhibited
